These results are taken from article PMC11705955, “Lack of activity of HIV-1 integrase strand-transfer inhibitors on recombinase activating gene (RAG) activity at clinically relevant concentrations” (Microbiology Spectrum, 2024).

As usually defined, the IC50 is the concentration that inhibits the measured activity by half.

Assay [1] relates to murine mCherry-core RAG1 / mCherry-RAG2 V(D)J recombination in Expi293F cells. The experiment in a line: Extrachromosomal cell-based V(D)J recombination assay (GFP reporter, flow cytometry). An excerpt:
To further evaluate the effect of HIV-1 integrase inhibitors on RAG activity in a cellular context, we optimized a novel extrachromosomal cell-based V(D)J recombination assay, enabling assessment of multiple compounds in a dose–response manner by flow cytometry ([33]). The schematic of FL murine RAG1 and RAG2 proteins, including the active site residues (DDE motif) in RAG1 and catalytically essential core regions of each protein, are shown in Fig. 5A. The cell-based assay used vectors that encode for the core RAG1 protein (instead of the FL version) and FL murine RAG2 expressed as C-terminal fusions to mCherry, termed mCherry-core RAG1 and mCherry-RAG2. The core regions of each RAG protein are sufficient to catalyze V(D)J recombination, whereas the non-core regions function to regulate the recombination reaction ([13]). […] The consensus RSS used in this assay contains a conserved heptamer and nonamer separated by 12 or 23 non-conserved bp (12RSS and 23RSS) (Fig. 5B). A general schematic of the design for the plasmid substrate with the 12RSS and 23RSS orientations before and after V(D)J recombination is presented in Fig. 5C. More specifically, the plasmid substrate pMAXgfp-INV was designed with a 12RSS and a 23RSS flanking each side of the Pontellina plumata green fluorescent protein gene (termed maxGFP), where the gene is in an inverted orientation relative to the CMV promoter (Fig. 5D). The RSSs are positioned in a co-linear orientation, such that successful V(D)J recombination activity will result in inversion of the maxGFP gene to place it in a transcriptionally active orientation with resulting expression of GFP. Detection of GFP-expressing cells using microscopy and flow cytometry was used as a direct readout of V(D)J recombination activity.
For the recombination assay, the pMAXgfp-INV plasmid substrate and RAG1/RAG2 expression vectors (mCherry-core RAG1 and mCherry-RAG2) were transiently transfected into Expi293 cells in the absence or presence of integrase inhibitors and were assessed via microscopy and flow cytometry. The fluorescence signal from the mCherry-tag is used to assess transfection efficiency of RAG1/RAG2 vectors (Fig. 6A). We observed that transfection of the pMAXgfp-INV substrate into Expi293 cells with RAG1/RAG2 expression vectors yielded robust GFP expression 48 h post-transfection in the cells treated with vehicle control (0.1% dimethyl sulfoxide [DMSO]) (Fig. 6A). […] NU7026 inhibits double-strand break repair, which is a necessary step after DNA cleavage by RAG enzymes, and thus serves as an indirect inhibitor of RAG activity ([35]).
To test the effect of HIV-1 integrase inhibitors on V(D)J recombination activity, we optimized an extrachromosomal cell-based V(D)J recombination assay ([33]). Briefly, Expi293 cells were plated at 1 × 10^6 cells/mL in six-well plates in Gibco Expi293 expression media the day before transfection. The next day, the Expi293 cells were co-transfected with three separate vectors, pMAXgfp-INV plasmid substrate, mCherry-core RAG1, and mCherry-RAG2 expression vectors with a 4:1 transfection reagent:DNA ratio using ExpiFectamine 293 transfection reagent (Gibco). Vehicle or candidate inhibitors were added to cell samples 2 h after transfection, with six different concentrations of each inhibitor added to separate wells. Fivefold dilutions for each inhibitor starting from 10 µM were tested.
Experiments were performed with six separate inhibitors in at least three independent experiments. Two negative control conditions for recombination activity were performed in parallel and include (i) transfections in the presence of NU7026 at 30 and 50 µM (Abcam) and (ii) using a modified pMAXgfp-INV substrate containing two 12RSSs (instead of one 12RSS and one 23RSS) that is inefficiently recombined by the RAG proteins. Vehicle control (0.1% DMSO) served as the positive control for GFP expression. The fluorescence signal from the mCherry tag was used to assess transfection efficiency. […]

For assay [2], the target named is T1, human core RAG1 (AA387-1011), MBP-10N-PreScission-RAG1 (human, UniProt P15918-1 387-1011).
T1 construct: also called RAG1 core domain; source: Expi293F GnTI cells, plasmids transfected (co-expressed with core RAG2), purified (MBP-Trap, Superdex 200); not shown: MBP, N-terminal, kept
T1 sequence (looked up): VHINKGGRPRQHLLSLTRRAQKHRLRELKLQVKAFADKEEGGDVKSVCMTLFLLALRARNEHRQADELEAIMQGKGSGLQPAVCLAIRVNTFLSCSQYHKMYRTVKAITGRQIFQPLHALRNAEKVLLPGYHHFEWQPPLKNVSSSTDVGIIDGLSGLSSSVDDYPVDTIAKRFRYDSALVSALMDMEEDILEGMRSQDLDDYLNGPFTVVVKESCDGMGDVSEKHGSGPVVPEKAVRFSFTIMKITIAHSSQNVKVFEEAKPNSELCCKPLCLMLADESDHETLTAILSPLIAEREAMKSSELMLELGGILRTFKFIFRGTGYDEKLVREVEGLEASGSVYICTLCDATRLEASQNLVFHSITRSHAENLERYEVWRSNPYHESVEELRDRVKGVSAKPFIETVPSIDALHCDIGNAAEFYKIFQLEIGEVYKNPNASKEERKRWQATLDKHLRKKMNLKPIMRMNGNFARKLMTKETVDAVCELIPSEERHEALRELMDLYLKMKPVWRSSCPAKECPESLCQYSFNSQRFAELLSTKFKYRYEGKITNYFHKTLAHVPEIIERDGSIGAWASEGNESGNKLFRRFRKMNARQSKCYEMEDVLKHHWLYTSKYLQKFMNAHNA
The experiment in a line: SEC; analytical SEC-HPLC, Superdex 200 Increase 5/150 GL column, 10-µg protein sample; co-expressed and co-purified MBP-tagged core RAG1 and core RAG2. The note with it: both partners purified. On the technique in general: In gel filtration, larger molecules generally elute earlier.

Regarding `O=c1cc(N2CCOCC2)oc2c1ccc1ccccc12` [NU7026], the “Effect on percentage of GFP-positive cells / RAG recombination” value in assay [1] (across concentrations tested, 48 h post-transfection) is “dose-dependent decrease in percentage of GFP-positive cells”. Besides, in assay [1] (compound added 2 h after transfection, read 48 h post-transfection, serum-free media, read-out: IC50 in cellular V(D)J recombination assay (% GFP-positive cells)), the IC50 came to 41.5 ± 9.4 µM.

B1: human core RAG2 (AA1-387), MBP-5A-RAG2 (domain or fragment, UniProt P55895 1-387, looked up)
chain: MSLQMVTVSNNIALIQPGFSLMNFDGQVFFFGQKGWPKRSCPTGVFHLDVKHNHVKLKPTIFSKDSCYLPPLRYPATCTFKGSLESEKHQYIIHGGKTPNNEVSDKIYVMSIVCKNNKKVTFRCTEKDLVGDVPEARYGHSINVVYSRGKSMGVLFGGRSYMPSTHRTTEKWNSVADCLPCVFLVDFEFGCATSYILPELQDGLSFHVSIAKNDTIYILGGHSLANNIRPANLYRIRVDLPLGSPAVNCTVLPGGISVSSAILTQTNNDEFVIVGGYQLENQKRMICNIISLEDNKIEIREMETPDWTPDIKHSKIWFGSNMGNGTVFLGIPGDNKQVVSEGFYFYMLKCAEDDTNEEQTTFTNSQTSTEDPGDSTPFEDSEEFCFS
notes: also called RAG2 core domain; source: Expi293F GnTI cells, plasmids transfected (co-expressed with core RAG1), purified (MBP-Trap, Superdex 200); not shown: MBP, N-terminal, kept
Regarding B1, the binding result in assay [2] is listed as “binds”.
